# Laboratory results reported in ChEMBL document CHEMBL1201861, “Genomics of Drug Sensitity in Cancer screening data, Wellcome Trust Sanger Institute”.
# Legend:
# Assay in all cases: cells
# Details in all cases: Homo sapiens
# [1] = tested on: HH; format: functional, cell-based
# Description: SANGER: Inhibition of human HH cell growth in a cell viability assay.
# [2] = tested on: BB30-HNC; format: functional, cell-based;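 also: growth inhibition of the cultured cell line, read out by a cell viability assay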
# Description: SANGER: Inhibition of human BB30-HNC cell growth in a cell viability assay.
# [3] = tested on: IA-LM; format: functional, cell-based;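 also: cell viability assay measuring growth inhibition of human IA-LM cells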
# Description: SANGER: Inhibition of human IA-LM cell growth in a cell viability assay.
# [4] = tested on: Mo; format: functional, cell-based
# Description: SANGER: Inhibition of human Mo-T cell growth in a cell viability assay.
# [5] = tested on: HOP-62; format: functional, cell-based;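 also: cell growth inhibition determined with a viability assay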
# Description: SANGER: Inhibition of human HOP-62 cell growth in a cell viability assay.
# [6] = tested on: Lu-65; format: functional, cell-based;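 also: growth inhibition of Lu-65 cancer cells, read out by a cell viability assay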
# Description: SANGER: Inhibition of human LU-65 cell growth in a cell viability assay.
# [7] = tested on: LNCaP-Clone-FGC; format: functional, cell-based
# Description: SANGER: Inhibition of human LNCaP-Clone-FGC cell growth in a cell viability assay.
# [8] = tested on: TGBC24TKB; format: functional, cell-based;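 also: growth inhibition of human TGBC24TKB cells, read out with a cell viability assay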
# Description: SANGER: Inhibition of human TGBC24TKB cell growth in a cell viability assay.
# [9] = tested on: MLMA; format: functional, cell-based;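 also: growth inhibition of MLMA cells (human), determined through a cell viability readout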
# Description: SANGER: Inhibition of human MLMA cell growth in a cell viability assay.
# [10] = tested on: NCI-H1155; format: functional, cell-based;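 also: cell growth inhibition measured by a viability assay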
# Description: SANGER: Inhibition of human NCI-H1155 cell growth in a cell viability assay.
# [11] = tested on: TK-10; format: functional, cell-based;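 also: growth inhibition of TK-10 cells, read out in a cell viability assay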
# Description: SANGER: Inhibition of human TK10 cell growth in a cell viability assay.
# [12] = tested on: SF-126; format: functional, cell-based;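 also: growth inhibition of human SF126 cells, read out with a cell viability assay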
# Description: SANGER: Inhibition of human SF126 cell growth in a cell viability assay.
# [13] = tested on: MHH-PREB-1; format: functional, cell-based;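 also: cell viability assay measuring inhibition of proliferation of human MHH-PREB-1 cells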
# Description: SANGER: Inhibition of human MHH-PREB-1 cell growth in a cell viability assay.
# [14] = tested on: NCI-H747; format: functional, cell-based;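 also: growth inhibition of human NCI-H747 cells, read out by a cell viability assay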
# Description: SANGER: Inhibition of human NCI-H747 cell growth in a cell viability assay.
# [15] = tested on: MHH-NB-11; format: functional, cell-based;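 also: growth inhibition of human MHH-NB-11 cells, read out by a cell viability assay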
# Description: SANGER: Inhibition of human MHH-NB-11 cell growth in a cell viability assay.
# [16] = tested on: KS-1; format: functional, cell-based;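 also: growth inhibition of KS-1 cells, read out with a cell viability assay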
# Description: SANGER: Inhibition of human KS-1 cell growth in a cell viability assay.
# [17] = tested on: NOS-1; format: functional, cell-based;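 also: growth inhibition of the human NOS-1 cell line, read out with a cell viability assay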
# Description: SANGER: Inhibition of human NOS-1 cell growth in a cell viability assay.
# [18] = tested on: DJM-1; format: functional, cell-based;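 also: growth inhibition of human DJM-1 cells, read out by a cell viability assay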
# Description: SANGER: Inhibition of human DJM-1 cell growth in a cell viability assay.
# [19] = tested on: KURAMOCHI; format: functional, cell-based;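 also: growth inhibition of KURAMOCHI cells, read out with a cell viability assay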
# Description: SANGER: Inhibition of human KURAMOCHI cell growth in a cell viability assay.
# [20] = tested on: QIMR-WIL; format: functional, cell-based;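 also: growth inhibition of QIMR-WIL cells, read out with a cell viability assay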
# Description: SANGER: Inhibition of human QIMR-WIL cell growth in a cell viability assay.
# [21] = tested on: NB6; format: functional, cell-based;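 also: growth inhibition of NB6 cells, read out by a cell viability assay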
# Description: SANGER: Inhibition of human NB6 cell growth in a cell viability assay.
# [22] = tested on: EW-1; format: functional, cell-based;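 also: growth inhibition of the human EW-1 cell line, read out by a cell viability assay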
# Description: SANGER: Inhibition of human EW-1 cell growth in a cell viability assay.
# [23] = tested on: ES5; format: functional, cell-based;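 also: growth inhibition of human ES5 cells, read out by a cell viability assay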
# Description: SANGER: Inhibition of human ES5 cell growth in a cell viability assay.
# [24] = tested on: OMC-1; format: functional, cell-based;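 also: growth inhibition of the OMC-1 cell line, measured by a cell viability assay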
# Description: SANGER: Inhibition of human OMC-1 cell growth in a cell viability assay.
# [25] = tested on: 8-MG-BA; format: functional, cell-based;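 also: growth inhibition of 8-MG-BA cells, read out with a cell viability assay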
# Description: SANGER: Inhibition of human 8-MG-BA cell growth in a cell viability assay.
# [26] = tested on: RPMI-8866; format: functional, cell-based
# Description: SANGER: Inhibition of human RPMI-8866 cell growth in a cell viability assay.
# [27] = tested on: C8166; format: functional, cell-based;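 also: growth inhibition of human C8166 cells measured by a cell viability assay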
# Description: SANGER: Inhibition of human C8166 cell growth in a cell viability assay.
# [28] = tested on: MSTO-211H; format: functional, cell-based
# Description: SANGER: Inhibition of human MSTO-211H cell growth in a cell viability assay.
# [29] = tested on: HuTu80; format: functional, cell-based, HUTU-80;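 also: growth inhibition of HuTu80 human cells, determined with a cell viability readout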
# Description: SANGER: Inhibition of human HUTU-80 cell growth in a cell viability assay.
# [30] = tested on: COLO-668; format: functional, cell-based
# Description: SANGER: Inhibition of human COLO-668 cell growth in a cell viability assay.
# [31] = tested on: SW982; format: functional, cell-based;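 also: growth inhibition of SW982 cells, read out with a cell viability assay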
# Description: SANGER: Inhibition of human SW982 cell growth in a cell viability assay.
# [32] = tested on: A704; format: functional, cell-based;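 also: growth inhibition of human A704 cells, read out with a cell viability assay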
# Description: SANGER: Inhibition of human A704 cell growth in a cell viability assay.
# [33] = tested on: P30-OHK; format: functional, cell-based;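 also: growth inhibition of the P30-OHK cell line, read out with a cell viability assay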
# Description: SANGER: Inhibition of human P30-OHK cell growth in a cell viability assay.
# [34] = tested on: SK-LMS-1; format: functional, cell-based;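 also: growth inhibition of human SK-LMS-1 cells, read out with a cell viability assay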
# Description: SANGER: Inhibition of human SK-LMS-1 cell growth in a cell viability assay.
# [35] = tested on: SNU-C2B; format: functional, cell-based;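 also: cell viability readout used to measure compound-driven suppression of SNU-C2B cell proliferation, IC50 marking half-maximal growth inhibition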
# Description: SANGER: Inhibition of human SNU-C2B cell growth in a cell viability assay.
# [36] = tested on: EKVX; format: functional, cell-based;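 also: growth inhibition of human EKVX cells, read out with a cell viability assay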
# Description: SANGER: Inhibition of human EKVX cell growth in a cell viability assay.
# [37] = tested on: DOHH-2; format: functional, cell-based;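 also: growth inhibition of human DOHH-2 cells, read out with a cell viability assay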
# Description: SANGER: Inhibition of human DOHH-2 cell growth in a cell viability assay.
# [38] = tested on: LAN-6; format: functional, cell-based;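 also: growth inhibition of LAN-6 cells, determined with a cell viability assay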
# Description: SANGER: Inhibition of human LAN-6 cell growth in a cell viability assay.
# [39] = tested on: NCI-H69; format: functional, cell-based;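 also: growth inhibition of the cell line, read out with a cell viability assay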
# Description: SANGER: Inhibition of human NCI-H69 cell growth in a cell viability assay.
# [40] = tested on: LXF-289 cell line; format: functional, cell-based
# Description: SANGER: Inhibition of human LXF-289 cell growth in a cell viability assay.
# [41] = tested on: KARPAS-45; format: functional, cell-based;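 also: inhibition of cell line growth, read out through a viability assay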
# Description: SANGER: Inhibition of human KARPAS-45 cell growth in a cell viability assay.
# [42] = tested on: ONS-76; format: functional, cell-based;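 also: growth inhibition of human ONS-76 cells, read out with a cell viability assay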
# Description: SANGER: Inhibition of human ONS-76 cell growth in a cell viability assay.
# [43] = tested on: HCE-T; format: functional, cell-based;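 also: cell viability assay read-out, reporting inhibition of HCE-T cell growth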
# Description: SANGER: Inhibition of human HCE-T cell growth in a cell viability assay.
# [44] = tested on: CCRF-CEM; format: functional, cell-based;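 also: inhibition of CCRF-CEM cell growth, measured by a cell viability assay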
# Description: SANGER: Inhibition of human CCRF-CEM cell growth in a cell viability assay.
# [45] = tested on: HCC2218; format: functional, cell-based;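 also: cell viability assay read-out, with IC50 given as the concentration that inhibits growth of the cell line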
# Description: SANGER: Inhibition of human HCC2218 cell growth in a cell viability assay.
# [46] = tested on: KINGS-1; format: functional, cell-based;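 also: cell viability assay measuring suppression of KINGS-1 cell growth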
# Description: SANGER: Inhibition of human KINGS-1 cell growth in a cell viability assay.
# [47] = tested on: Ramos-2G6-4C10; format: functional, cell-based;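 also: growth inhibition of the cell line, measured by a cell viability read-out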
# Description: SANGER: Inhibition of human Ramos-2G6-4C10 cell growth in a cell viability assay.
# [48] = tested on: GCIY; format: functional, cell-based;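 also: growth inhibition of the human GCIY cell line, read out by a cell viability assay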
# Description: SANGER: Inhibition of human GCIY cell growth in a cell viability assay.
# [49] = tested on: LS-513; format: functional, cell-based
# Description: SANGER: Inhibition of human LS-513 cell growth in a cell viability assay.
# [50] = tested on: SK-NEP-1; format: functional, cell-based;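 also: growth inhibition of human SK-NEP-1 cells, read out by a cell viability assay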
# Description: SANGER: Inhibition of human SK-NEP-1 cell growth in a cell viability assay.
# [51] = tested on: KMOE-2; format: functional, cell-based;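 also: growth inhibition of human KMOE-2 cells, read out with a cell viability assay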
# Description: SANGER: Inhibition of human KMOE-2 cell growth in a cell viability assay.
# [52] = tested on: HC-1; format: functional, cell-based;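 also: growth inhibition of HC-1 cells measured by a cell viability assay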
# Description: SANGER: Inhibition of human HC-1 cell growth in a cell viability assay.
# [53] = tested on: LS-1034; format: functional, cell-based
# Description: SANGER: Inhibition of human LS-1034 cell growth in a cell viability assay.
# [54] = tested on: SNU1; format: functional, cell-based;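 also: growth inhibition of human NCI-SNU-1 cells, measured with a cell viability assay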
# Description: SANGER: Inhibition of human NCI-SNU-1 cell growth in a cell viability assay.
# [55] = tested on: KLE; format: functional, cell-based;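 also: growth inhibition of human KLE cells, read out with a cell viability assay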
# Description: SANGER: Inhibition of human KLE cell growth in a cell viability assay.
# [56] = tested on: TE-8; format: functional, cell-based;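 also: growth inhibition of TE-8 cells, measured with a cell viability readout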
# Description: SANGER: Inhibition of human TE-8 cell growth in a cell viability assay.
# [57] = tested on: SW 962; format: functional, cell-based;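 also: growth inhibition of human SW962 cells, read out by a cell viability assay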
# Description: SANGER: Inhibition of human SW962 cell growth in a cell viability assay.
# [58] = tested on: LU-134-A; format: functional, cell-based
# Description: SANGER: Inhibition of human LU-134-A cell growth in a cell viability assay.
# [59] = tested on: U-87 MG; format: functional, cell-based, U-87MG ATCC
# Description: SANGER: Inhibition of human U-87-MG cell growth in a cell viability assay.
# [60] = tested on: NEC8; format: functional, cell-based
# Description: SANGER: Inhibition of human NEC8 cell growth in a cell viability assay.
# [61] = tested on: KY821; format: functional, cell-based
# Description: SANGER: Inhibition of human KY821 cell growth in a cell viability assay.
# [62] = tested on: NOMO-1; format: functional, cell-based
# Description: SANGER: Inhibition of human NOMO-1 cell growth in a cell viability assay.
# [63] = tested on: CW-2; format: functional, cell-based
# Description: SANGER: Inhibition of human CW-2 cell growth in a cell viability assay.
# [64] = tested on: KARPAS-299; format: functional, cell-based
# Description: SANGER: Inhibition of human KARPAS-299 cell growth in a cell viability assay.
# [65] = tested on: D-502MG; format: functional, cell-based
# Description: SANGER: Inhibition of human D-502MG cell growth in a cell viability assay.
smiles,measurement,setting,value
Cc1[nH]c(/C=C2\C(=O)Nc3ccc(S(=O)(=O)Cc4c(Cl)cccc4Cl)cc32)c(C)c1C(=O)N1CCC[C@@H]1CN1CCCC1 [PHA-665752],IC50,[1],> 2 µM
same,IC50,[2],> 2 µM
same,IC50,[3],> 2 µM
same,IC50,[4],> 2 µM
same,IC50,[5],> 2 µM
same,IC50,[6],> 2 µM
same,IC50,[7],> 2 µM
same,IC50,[8],> 2 µM
same,IC50,[9],> 2 µM
same,IC50,[10],> 2 µM
same,IC50,[11],> 2 µM
same,IC50,[12],> 2 µM
same,IC50,[13],> 2 µM
same,IC50,[14],> 2 µM
same,IC50,[15],> 2 µM
same,IC50,[16],> 2 µM
same,IC50,[17],> 2 µM
same,IC50,[18],> 2 µM
same,IC50,[19],> 2 µM
same,IC50,[20],> 2 µM
same,IC50,[21],> 2 µM
same,IC50,[22],> 2 µM
same,IC50,[23],> 2 µM
same,IC50,[24],> 2 µM
same,IC50,[25],> 2 µM
same,IC50,[26],> 2 µM
same,IC50,[27],> 2 µM
same,IC50,[28],> 2 µM
same,IC50,[29],> 2 µM
same,IC50,[30],> 2 µM
same,IC50,[31],> 2 µM
same,IC50,[32],> 2 µM
same,IC50,[33],> 2 µM
same,IC50,[34],0.898 µM
same,IC50,[35],> 2 µM
same,IC50,[36],> 2 µM
same,IC50,[37],> 2 µM
same,IC50,[38],> 2 µM
same,IC50,[39],> 2 µM
same,IC50,[40],> 2 µM
same,IC50,[41],> 2 µM
same,IC50,[42],> 2 µM
same,IC50,[43],> 2 µM
same,IC50,[44],> 2 µM
same,IC50,[45],> 2 µM
same,IC50,[46],0.359 µM
same,IC50,[47],> 2 µM
same,IC50,[48],> 2 µM
same,IC50,[49],> 2 µM
same,IC50,[50],> 2 µM
same,IC50,[51],> 2 µM
same,IC50,[52],> 2 µM
same,IC50,[53],> 2 µM
same,IC50,[54],> 2 µM
same,IC50,[55],> 2 µM
same,IC50,[56],> 2 µM
same,IC50,[57],> 2 µM
same,IC50,[58],> 2 µM
same,IC50,[59],> 2 µM
same,IC50,[60],> 2 µM
same,IC50,[61],> 2 µM
same,IC50,[62],> 2 µM
same,IC50,[63],> 2 µM
same,IC50,[64],> 2 µM
same,IC50,[65],> 2 µM
O=c1[nH]c2ccccc2n1C1CCN(Cc2ccc(-c3nc4cc5[nH]cnc5cc4nc3-c3ccccc3)cc2)CC1,IC50,[1],> 2.56 µM
same,IC50,[2],> 2.56 µM
same,IC50,[3],> 2.56 µM
same,IC50,[4],> 2.56 µM
same,IC50,[5],> 2.56 µM
same,IC50,[6],> 2.56 µM
same,IC50,[7],> 2.56 µM
same,IC50,[8],> 2.56 µM
same,IC50,[9],> 2.56 µM
same,IC50,[10],> 2.56 µM
same,IC50,[11],> 2.56 µM
same,IC50,[12],> 2.56 µM
same,IC50,[13],> 2.56 µM
same,IC50,[14],> 2.56 µM
same,IC50,[15],> 2.56 µM
same,IC50,[16],> 2.56 µM
same,IC50,[17],1.37 µM
same,IC50,[18],> 2.56 µM
same,IC50,[19],2.31 µM
same,IC50,[20],> 2.56 µM
same,IC50,[21],> 2.56 µM
same,IC50,[22],> 2.56 µM
same,IC50,[23],> 2.56 µM
same,IC50,[24],> 2.56 µM
same,IC50,[25],> 2.56 µM
same,IC50,[26],> 2.56 µM
same,IC50,[27],> 2.56 µM
same,IC50,[28],> 2.56 µM
same,IC50,[29],> 2.56 µM
same,IC50,[30],> 2.56 µM
same,IC50,[31],> 2.56 µM
same,IC50,[32],> 2.56 µM
same,IC50,[33],> 2.56 µM
same,IC50,[34],> 2.56 µM
same,IC50,[35],> 2.56 µM
same,IC50,[36],> 2.56 µM
same,IC50,[37],> 2.56 µM
same,IC50,[38],> 2.56 µM
same,IC50,[39],> 2.56 µM
same,IC50,[40],1.76 µM
same,IC50,[41],> 2.56 µM
same,IC50,[42],> 2.56 µM
same,IC50,[43],> 2.56 µM
same,IC50,[44],> 2.56 µM
same,IC50,[45],> 2.56 µM
same,IC50,[46],> 2.56 µM
same,IC50,[47],> 2.56 µM
same,IC50,[48],> 2.56 µM
same,IC50,[49],> 2.56 µM
same,IC50,[50],> 2.56 µM
same,IC50,[51],> 2.56 µM
same,IC50,[52],> 2.56 µM
same,IC50,[53],> 2.56 µM
same,IC50,[54],> 2.56 µM
same,IC50,[55],> 2.56 µM
same,IC50,[56],> 2.56 µM
same,IC50,[57],> 2.56 µM
same,IC50,[58],> 2.56 µM
same,IC50,[59],> 2.56 µM
same,IC50,[60],> 2.56 µM
same,IC50,[61],> 2.56 µM
same,IC50,[62],> 2.56 µM
same,IC50,[63],> 2.56 µM
same,IC50,[64],> 2.56 µM
same,IC50,[65],> 2.56 µM
